Source: patent US20070167424A1, “Aztreonam L-lysine and methods for the preparation thereof” (priority 2003, published 2007)

What was measured:
[1] = Storage stability: assay of Aztreonam by HPLC after storage; assay type: physicochemical
Procedure: (§1) The Aztreonam L-lysine obtained using these methods was stable in the sense that during 3 months at 2-8° C.:
1. the assay of Aztreonam was maintained constant in the limit 60-66%; and The assay of Aztreonam Lysine salt using the HPLC method was determined as follows: a. Dissolving Aztreonam Lysine salt sample in a mixture of 0.02 M KH2PO4 buffer solution (pH adjusted 3.0 with 25 w/w % phosphoric acid) and methanol (80:20) diluent, b. Injecting the sample solution (ca. 10 μl) into a 50.0 mm×4.6 mm, 3 μm RP-18 HPLC column, c. Isocratic eluting at 1.5 ml/min with a mixture of 0.02 M KH2PO4 buffer solution (pH adjusted 3.0 with 25 w/w % phosphoric acid) and methanol in a 83:17 v/v % ratio. d. Measuring of the amounts of each impurity at 270 nm wavelength with a UV detector and appropriate recording device. e. Calculating of the assay referring to the Aztreonam working standard at a concentration of 100 [g/ml.
In the above method, Aztreonam has a retention time of about 2.3 minutes

[2] = Storage stability: impurity content by HPLC after storage; assay type: physicochemical
Procedure: as §1
2. no impurity exceed 0.3 area %.
The impurity content of Aztreonam lysine salt using the HPLC method is determined as follows:
a. Aztreonam Lysine salt sample is dissolved in 0.02 M KH2PO4 buffer solution (pH adjusted 2.0 with 25 w/w % phosphoric acid) diluent,
b. The sample solution (ca. 10 μl) is injected into a 100.0 mm×4.0 mm, 3 μm RP-1 8 HPLC column,
c. Gradient eluting with a mixture of 0.02 M KH2PO4 buffer solution (pH adjusted 3.0 with 25 w/w % phosphoric acid) (A) and acetonitrile (B) according to the following profile:
d. The amounts of each impurity was measured at 230 nm wavelength with a UV detector and appropriate recording device.
e. The amount of each impurity was calculated referring to an Aztreonam working standard at a concentration of […].
In the above method, Aztreonam has a retention time of about 10.2 minutes.

[3] = after storage for three months at about 2-8° C.

Compound | assay of Aztreonam maintained constant in the limit ([1]; during 3 months at 2-8° C.) | no impurity exceed (largest single impurity) ([2]; during 3 months at 2-8° C.) [area %] | maintains at least about ... of the Aztreonam [1, 3] | does not contain any impurity exceeding [2, 3] [area %]
C[C@H]1[C@H](NC(=O)/C(=N\OC(C)(C)C(=O)O)c2csc(N)n2)C(=O)N1S(=O)(=O)O.NCCCC[C@H](N)C(=O)O [Aztreonam L-lysine] | 60-66% | ≤ 0.3 | – | –
C[C@H]1[C@H](NC(=O)/C(=N\OC(C)(C)C(=O)O)c2csc(N)n2)C(=O)N1S(=O)(=O)O.NCCCC[C@H](N)C(=O)O [Example 2, Aztreonam L-lysine salt] | – | – | at least 63 weight % | ≤ 0.3
